The nature of data set [1]: Cell viability, PrestoBlue assay. The conditions noted are these: human. Type of data set: cell-based. The procedure:
The effect of the peptides on cell viability can be assessed in cultured cells using suitable assay of viability such as the PrestoBlue® assay (Thermo Fisher Scientific, Waltham, Mass.). Peptides were initially prepared as 10 mM stock in DMSO and tested at a final concentration of 10 μM (0.1% DMSO). […] PrestoBlue Assay Reagent was purchased from Thermo Fisher Scientific. A172 human brain glioblastoma cell line was purchased from American Type Culture Collection (Manassas, Va.). A172 cells were grown in DMEM supplemented with 10% FBS with 100 IU/ml penicillin and 100 μg/ml streptomycin. Cultures were maintained at 37° C. in a humidified atmosphere of 5% CO2/95% air. A172 cells were seeded at 8,000 cells per well on 96-well plates. […] Cell viability was determined using a PrestoBlue Assay reagent […] according to the manufacturer's instructions. Absorption for each sample well on the plate was measured using a Cytation 3 plate reader at 560 nm and 590 nm (BioTek, Winooski, Vt.). Activity was calculated relative to 0.1% DMSO untreated control. Treatment with 0.1% DMSO alone was used as the cell viability activity control. The relative standard deviation of the DMSO control was <5%.

The subject of another data set is C2C12 Mouse Myoblasts. The experiment in a line: Glucose utilization in C2C12 mouse myoblasts. It counts as cell-based. The conditions noted are these: peptide 10 μM, 18-22 hours, relative to 0.1% DMSO treated control cells. As for the experimental part:
The effect of the peptides on glucose metabolism can be assessed using an assay of glucose utilization in cultured cultured cells such as mouse myoblasts. Peptides were initially prepared as 10 mM stock in DMSO and used at a final concentration of 10 μM (0.1% DMSO). C2C12 mouse myoblast cell line was purchased from American Type Culture Collection (Manassas, Va.). C2C12 cultures were maintained at 37° C. in a humidified atmosphere of 5% CO2/95% air with medium changes every second day. C2C12 cells were grown in DMEM (1 g/L glucose) supplemented with 10% FBS with 100 IU/ml penicillin and 100 μg/ml streptomycin. C2C12 cells were seeded at 7,000 cells per well on 96-well plates and cultured to confluence. Once the cell reached confluence the media was changed to DMEM (1 g/L glucose) supplemented with 2% HS with 100 IU/ml penicillin and 100 μg/ml streptomycin and maintained at 37° C. in a humidified atmosphere of 5% CO2/95% air, 5 days post-induction of differentiation fresh DMEM (1 g/L glucose) supplemented with 2% HS with 100 IU/ml penicillin and 100 μg/ml streptomycin was added to cultures. Cells were maintained at 37° C. in a humidified atmosphere of 5% CO2 and 95% air for 5 hours. After 5 hours test peptides at 10 μM or controls (0.5 mM or 1 mM metformin in 1% DMSO) prepared in fresh differentiation medium were added to cells and the cultures were maintained at 37° C. in a humidified atmosphere of 5% CO2/95% air for 18-22 hours. At the end of the incubation culture media was removed from the cells and the remaining glucose concentration was measured using a Glucose Assay kit (Abcam) according to the manufacturer's instructions, using a Cytation 3 plate reader at 570 nm (BioTek, Winooski, Vt.). Glucose concentrations in the medium were calculated relative to 0.1% DMSO treated control cells. The relative standard deviation of the result for the 0.1% DMSO treated control was <20%. Metformin was used as a positive control for reduction of glucose levels (increased glucose utilization glucose levels for treatment with metformin (1 mM) treatment were <20% of the 0.1% DMSO treated control value. The results are reported in Table 7.

Data set [2] deals with SH-SY5Y Neuroblastoma Cells. As to the kind of experiment: ATP levels (CellTiter-Glo). It counts as cell-based, human. The conditions noted are these: peptide 10 μM, 18-20 hours, relative to 0.1% DMSO treated control. As for the experimental part:
The effect of the peptides on cellular metabolism can be assessed using an assay of ATP levels in cultured cells such as human neuroblastoma cells. Peptides were initially prepared as 10 mM stock in DMSO and used at a final concentration of 10 μM (0.1% DMSO). […] CellTiter-Glo® Assay kit was purchased from Promega. SH-SY5Y human bone marrow neuroblastoma cell line was purchased from American Type Culture Collection (Manassas, Va.) and licensed from Memorial Sloan-Kettering Cancer Center (New York, N.Y.). SH-SY5Y cells were grown in DMEM/F12 medium supplemented with 10% FBS with 100 IU/ml penicillin and 100 μg/ml streptomycin. Cultures were maintained at 37° C. in a humidified atmosphere of 5% CO2/95% air. SH-SY5Y cells were seeded at 30,000 cells per well on 96-well plates. […] ATP levels were determined using a CellTiter-Glo Assay kit (Promega) according to the manufacturer's instructions. Luminescence for each sample well on the plate was measured using a Cytation 3 plate reader (BioTek, Winooski, Vt.). Activity was calculated relative to 0.1% DMSO treated control. The relative standard deviation of the result for the 0.1% DMSO treated control was <5%.

Data set [3] concerns the target T1, human CXCR4 (Homo sapiens, UniProt P61073). As to the kind of experiment: Inhibition of β-Arrestin recruitment, single concentration (Example 18). Also noted: host or cells: C2C12 (mouse myoblast) CXCR4 β-Arrestin PathHunter cell line. It counts as cell-based. The conditions noted are these: peptide 1 μM, […] CXCL12 (EC80), C2C12 CXCR4 β-Arrestin cells. As for the experimental part: Peptides were initially prepared as 1 mM stock in DMSO and tested at a final concentration of 1 μM (0.1% DMSO). C2C12 CXCR4 β-Arrestin cells were seeded onto 384-well plates in standard medium. After overnight culture, the medium was replaced with buffer containing 1 μM peptide and pre-incubated for 30 min at 37° C. […] At the end of the 90 min incubation period, β-Arrestin recruitment in response to various treatments was quantified using a chemiluminescent complementation reporter assay to measure association of tagged human […] (ProLink tag) and tagged β-Arrestin (Enzyme Acceptor tag).
A general note: Arrestin recruitment assays detect the binding of arrestin to an activated receptor.

The target in data set [4] is T1, human CXCR4. As to the kind of experiment: IC50 for CXCR4/CXCL12 ligand binding, HTRF format (Example 24). Also on record: host or cells: HEK293 (Tag-lite CXCR4 cells, frozen aliquots, transient expression). Background: TR-FRET usually uses a lanthanide donor and a delayed reading to cut background.
Data set [5] deals with T1, human CXCR4. As to the kind of experiment: IC50 for inhibition of β-Arrestin recruitment (Example 19). Type of data set: cell-based. Also on record: host or cells: C2C12 (mouse myoblast) CXCR4 β-Arrestin PathHunter cell line. From the text:
C2C12 CXCR4 β-Arrestin cells were seed onto 384-well plates in standard medium.

The term viability denotes a read-out of living cells in per cent, often relative to untreated cells. In general, IC50 refers to the point on the concentration scale where inhibition reaches its midpoint. Read a low IC50 as higher potency.

SMILES strings stand for the structures. Square brackets hold non-standard residues; d marks the D form. Peptide text beside a SMILES is read from it.

T1 sequence (P61073 whole entry): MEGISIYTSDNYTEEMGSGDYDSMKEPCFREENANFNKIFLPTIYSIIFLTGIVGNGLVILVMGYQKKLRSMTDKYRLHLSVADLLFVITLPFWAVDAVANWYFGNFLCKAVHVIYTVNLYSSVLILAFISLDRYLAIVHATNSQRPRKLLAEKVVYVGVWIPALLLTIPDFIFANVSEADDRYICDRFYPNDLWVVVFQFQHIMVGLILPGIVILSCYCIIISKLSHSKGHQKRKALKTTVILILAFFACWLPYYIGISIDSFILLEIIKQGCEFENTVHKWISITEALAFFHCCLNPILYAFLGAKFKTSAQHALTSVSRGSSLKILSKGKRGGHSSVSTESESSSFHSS

With `CSCC[C@H](N)C(=O)N[C@@H](CC(C)C)C(=O)N[C@@H](CCCNC(=N)N)C(=O)N[C@@H](CCCNC(=N)N)C(=O)N[C@@H](Cc1ccc(O)cc1)C(=O)N[C@@H](Cc1c[nH]cn1)C(=O)N[C@@H](Cc1c[nH]cn1)C(=O)N[C@@H](CO)C(=O)N[C@H](C(=O)N[C@@H](CCCNC(=N)N)C(=O)N[C@@H](CO)C(=O)N[C@@H](CO)C(=O)N[C@@H](CC(C)C)C(=O)N[C@@H](CCCNC(=N)N)C(=O)N1CCC[C@H]1C(=O)N[C@@H](Cc1ccc(O)cc1)C(=O)N[C@H](C(=O)N[C@@H](CCCCN)C(=O)O)[C@@H](C)O)C(C)C` [compound 2] (H-MLRRYHHSVRSSLRPYTK-OH; N-terminus and C-terminus assumed), the viability at 10 μM in data set [1] was found to be 96.4%. Further, the “Glucose concentration in medium, Percent of Untreated Control” value (“Glucose concentration in medium, Percent” for short) in the data set on C2C12 Mouse Myoblasts was determined as 126.7%. Also, the “ATP Levels, % Control” value in data set [2] is recorded as 100.1%.

The compound `CC(C)C[C@H](NC(=O)[C@H](CO)NC(=O)[C@H](CO)NC(=O)[C@H](CCCNC(=N)N)NC(=O)[C@@H](NC(=O)[C@H](CO)NC(=O)[C@H](Cc1c[nH]cn1)NC(=O)[C@H](Cc1c[nH]cn1)NC(=O)[C@H](Cc1ccc(O)cc1)NC(=O)[C@H](CCCNC(=N)N)NC(=O)[C@H](CCCNC(=N)N)NC(=O)[C@@H](N)CC(C)C)C(C)C)C(=O)N[C@@H](CCCNC(=N)N)C(=O)N1CCC[C@H]1C(=O)N[C@@H](Cc1ccc(O)cc1)C(=O)N[C@H](C(=O)N[C@@H](CCCCN)C(=O)O)[C@@H](C)O` [compound 3] (H-LRRYHHSVRSSLRPYTK-OH; N-terminus and C-terminus assumed) gave a viability at 10 μM in data set [1] of 97.3%. For the same compound, the “Percent Inhibition of CXCL12 Mediated CXCR4 Activity” value at human CXCR4 [3] was found to be 113.8%. In the data set with C2C12 Mouse Myoblasts, the “Glucose concentration in medium, Percent” value is 125.8%. Further, in data set [2], the “ATP Levels, % Control” value was 102.5%.

Regarding `CC(C)C[C@H](NC(=O)[C@H](CO)NC(=O)[C@H](CO)NC(=O)[C@H](CCCNC(=N)N)NC(=O)[C@@H](NC(=O)[C@H](CO)NC(=O)[C@H](Cc1c[nH]cn1)NC(=O)[C@H](Cc1c[nH]cn1)NC(=O)[C@H](Cc1ccc(O)cc1)NC(=O)[C@H](CCCNC(=N)N)NC(=O)[C@H](CCC(=O)O)NC(=O)[C@@H](N)CC(C)C)C(C)C)C(=O)N[C@@H](CCCNC(=N)N)C(=O)N1CCC[C@H]1C(=O)N[C@@H](Cc1ccc(O)cc1)C(=O)N[C@H](C(=O)N[C@@H](CCCCN)C(=O)O)[C@@H](C)O` [compound 4] (H-LERYHHSVRSSLRPYTK-OH; N-terminus and C-terminus assumed), the viability at 10 μM in data set [1] turned out to be 96%. For the same compound, the “Glucose concentration in medium, Percent” value in the data set on C2C12 Mouse Myoblasts amounted to 127.8%. For the same compound, the IC50 on human CXCR4 [4] was 6 nM. Also, in data set [2], the “ATP Levels, % Control” value is listed as 98.5%.

As for `CC(C)C[C@H](NC(=O)[C@H](CO)NC(=O)[C@H](CO)NC(=O)[C@H](CCCNC(=N)N)NC(=O)[C@@H](C)NC(=O)[C@H](CO)NC(=O)[C@H](Cc1c[nH]cn1)NC(=O)[C@H](Cc1c[nH]cn1)NC(=O)[C@H](Cc1ccc(O)cc1)NC(=O)[C@H](CCCNC(=N)N)NC(=O)[C@H](CCC(=O)O)NC(=O)[C@@H](N)CC(C)C)C(=O)N[C@@H](CCCNC(=N)N)C(=O)N1CCC[C@H]1C(=O)N[C@@H](Cc1ccc(O)cc1)C(=O)N[C@H](C(=O)O)[C@@H](C)O` [compound 5] (H-LERYHHS[dA]RSSLRPYT-OH; N-terminus and C-terminus assumed), the viability at 10 μM in data set [1] came to 98.8%. Also, the “Glucose concentration in medium, Percent” value in the data set on C2C12 Mouse Myoblasts stood at 128.3%. The IC50 was determined as 121 nM on human CXCR4 [5] and 33 nM at human CXCR4 [4]. The “ATP Levels, % Control” value in data set [2] amounted to 97.0%.

The values are drawn from US20220395553A1, “CXCR4 ANTAGONIST PEPTIDES” (COHBAR, INC., priority 2019, published 2022).
